Assays:
E. coli ML 4707 [1] = assay: Combination with antibiotics, normal state (Table 11); assay type: in vivo, E. coli; male mice of the ICR/JCL strain; details: only ampicillin, 12.5 mg/kg twice
Procedure: A sample was administered subcutaneously to the back of each of 5-weeks-old male mice of the ICR/JCL strain having a body weight of about 25 g (each group consisting of 10 mice) once a day continuously for five days (5 times in total). PS was given to a control group. On the sixth day, 1.0×10^7 cells of E. coli ML 4707 was challenged thereto by the intraperitoneal injection. 12.5 mg/kg of ampicillin (Ampicillin sodium for injection; produced by Toyama Kagaku Co., Ltd., Japan) was administered to each mouse twice (directly after the intraperitoneal injection and 4 hours thereafter). Seven days after the challenge, viable count was examined.

E. coli ML 4707 [2] = assay: Combination with an antibiotic in the immunosuppressive state (Table 12); assay type: in vivo, E. coli; female mice of the ICR/JCL strain; details: only ampicillin, 6.25 mg/kg s.c.; cyclophosphamide
Procedure: A sample was administered subcutaneously to the back of each of 5-weeks-old female mice of the ICR/JCL strain having a body weight of about 25 g (each group consisting of 10 mice) once a day continuously for four days (4 times in total). PS was given to a control group. On the first day, 200 mg/kg of cyclophosphamide was injected to them by the intraperitoneal injection. On the next day of the final administration (i.e. on the fifth day), 1.0×10^6 cells of E. coli ML 4707 was challenged thereto by the intraperitoneal injection. One hour thereafter, 6.25 mg/kg of ampicillin (Ampicillin-sodium for injection; produced by Toyama Kagaku Co., Ltd., Japan) was administered to the back of each mouse by the subcutaneous injection. Seven days after the challenge, viable count was examined.

Compound: CC1(C)S[C@@H]2[C@H](NC(=O)[C@H](N)c3ccccc3)C(=O)N2[C@H]1C(=O)O [ampicillin]
- Viable count (E. coli ML 4707 [1]): 20%
- Viable count (E. coli ML 4707 [2]): 10%

Reference: patent US4528188A, “Polysaccharide PS-A obtained from barrenwort deriving from plants belonging to the genus Epimedium, process for preparation thereof and phylactic and immunostimulating agents comprising said polysaccharide PS-A effective component” (priority 1981, dated 1985)
